In ChEMBL document CHEMBL5029175, “Discovery of MK-4688: an Efficient Inhibitor of the HDM2-p53 Protein-Protein Interaction” (J Med Chem, 2021):
pEC50, pIC50, pKd: −log10 of the molar value.

Tests used:
[1] = biological target: E3 ubiquitin-protein ligase Mdm2 (Homo sapiens, UniProt Q00987); test: Binding affinity to HDM2 (unknown origin)
[2] = Lipophilicity, logD of the compound at pH 7 by RP-HPLC analysis; format: physicochemical; conditions: buffer
[3] = biological target: Tumour suppressor p53/oncoprotein Mdm2 (Homo sapiens, UniProt Q00987); test: Inhibition of HDM2/p53 interaction in human HCT-116 cells expressing p53RE/Bla incubated for 16 hrs by beta-lactamase reporter gene assay; format: cell-based
Tumour suppressor p53/oncoprotein Mdm2, sequence (P04637 whole entry, the tested form may be a part): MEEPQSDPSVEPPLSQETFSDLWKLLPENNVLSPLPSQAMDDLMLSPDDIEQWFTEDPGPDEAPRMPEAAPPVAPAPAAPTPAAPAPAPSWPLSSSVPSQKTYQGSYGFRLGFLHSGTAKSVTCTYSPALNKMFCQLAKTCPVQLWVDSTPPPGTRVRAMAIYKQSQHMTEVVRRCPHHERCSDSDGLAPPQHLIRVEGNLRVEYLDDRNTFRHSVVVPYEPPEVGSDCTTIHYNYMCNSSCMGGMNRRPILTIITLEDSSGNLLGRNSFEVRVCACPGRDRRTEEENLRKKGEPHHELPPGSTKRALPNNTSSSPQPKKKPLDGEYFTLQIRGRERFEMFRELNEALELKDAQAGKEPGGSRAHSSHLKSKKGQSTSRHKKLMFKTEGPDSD
Tumour suppressor p53/oncoprotein Mdm2, sequence (Q00987 whole entry, the tested form may be a part): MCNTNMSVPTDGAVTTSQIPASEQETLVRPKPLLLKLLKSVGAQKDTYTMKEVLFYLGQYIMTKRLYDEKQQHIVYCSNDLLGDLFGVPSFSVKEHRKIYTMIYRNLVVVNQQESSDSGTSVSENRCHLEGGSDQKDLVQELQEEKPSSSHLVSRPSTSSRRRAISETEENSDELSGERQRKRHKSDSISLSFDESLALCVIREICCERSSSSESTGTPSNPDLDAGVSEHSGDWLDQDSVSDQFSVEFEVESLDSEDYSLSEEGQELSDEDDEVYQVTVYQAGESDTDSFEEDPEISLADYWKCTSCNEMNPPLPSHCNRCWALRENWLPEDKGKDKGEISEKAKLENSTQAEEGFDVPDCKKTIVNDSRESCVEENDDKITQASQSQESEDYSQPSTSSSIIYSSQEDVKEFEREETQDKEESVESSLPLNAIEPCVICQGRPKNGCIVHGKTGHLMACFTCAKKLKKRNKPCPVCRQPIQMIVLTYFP

[4] = Selectivity index, ratio of IC50 for inhibition of HDM2/p53 interaction in human HCT-116 cells expressing p53/Bla to IC50 for inhibition of N-terminal thioredoxin-His6 tagged HDM2 (17 to 125 residues)/p53 protein-protein interaction (unknown origin); format: cell-based
[5] = Mean residence time in rat; format: ADME; conditions: in vivo
[6] = Clearance in rat plasma; format: ADME, cell-free
[7] = Oral bioavailability in rat; format: ADME, organism-based; conditions: in vivo
[8] = test system: HCT-116; test: cells; conditions: Homo sapiens, HCT-116, 72 h
[9] = Unbound clearance in dog; format: ADME, Canis lupus familiaris; conditions: in vivo
[10] = Mean residence time in dog; format: ADME, Canis lupus familiaris; conditions: in vivo
[11] = Bioavailability in dog; format: ADME, organism-based, Canis lupus familiaris; conditions: in vivo
[12] = Unbound clearance in rat; format: ADME; conditions: in vivo
[13] = Bioavailability in rat; format: ADME, organism-based; conditions: in vivo
[14] = Intrinsic clearance in rat hepatocytes; format: ADME, cell-based, Hepatocyte; conditions: read-out: CLH
[15] = Intrinsic clearance in dog hepatocytes; format: ADME, cell-based, Canis lupus familiaris, Hepatocyte; conditions: read-out: CLH
[16] = Intrinsic Clearance in rhesus monkey hepatocytes; format: ADME, cell-based, Macaca mulatta, Hepatocyte; conditions: read-out: CLH
[17] = Plasma protein binding in rat; format: ADME, cell-free; conditions: read-out: PPB (converted)
[18] = Plasma protein binding in dog; format: ADME, cell-free, Canis lupus familiaris; conditions: read-out: PPB (converted)
[19] = Plasma protein binding in rhesus monkey; format: ADME, cell-free, Macaca mulatta; conditions: read-out: PPB (converted)
[20] = Clearance in rat plasma at 1 mg/kg, po or 0.5 mg/kg, iv; format: ADME, organism-based
[21] = Clearance in dog plasma at 0.5 mg/kg, po or 0.25 mg/kg, iv; format: ADME, organism-based, Canis lupus familiaris
[22] = Clearance in rhesus monkey plasma at 0.5 mg/kg, iv; format: ADME, organism-based, Macaca mulatta
[23] = Volume of distribution in rat at 1 mg/kg, po or 0.5 mg/kg, iv; format: ADME, organism-based; conditions: in vivo
[24] = Volume of distribution in dog at 0.5 mg/kg, po or 0.25 mg/kg, iv; format: ADME, organism-based, Canis lupus familiaris; conditions: in vivo
[25] = Volume of distribution in rhesus monkey at 0.5 mg/kg, iv; format: ADME, organism-based, Macaca mulatta; conditions: in vivo
[26] = Terminal half life in rat at 1 mg/kg, po or 0.5 mg/kg, iv; format: ADME, organism-based; conditions: in vivo, read-out: beta t1/2 (converted)
[27] = Terminal half life in dog at 0.5 mg/kg, po or 0.25 mg/kg, iv; format: ADME, organism-based, Canis lupus familiaris; conditions: in vivo, read-out: beta t1/2 (converted)
[28] = Terminal half life in rhesus monkey at 0.5 mg/kg, iv; format: ADME, organism-based, Macaca mulatta; conditions: in vivo, read-out: beta t1/2 (converted)
[29] = Bioavailability in rat at 1 mg/kg, po or 0.5 mg/kg, iv; format: ADME, organism-based; conditions: in vivo
[30] = Bioavailability in dog at 0.5 mg/kg, po or 0.25 mg/kg, iv; format: ADME, organism-based, Canis lupus familiaris; conditions: in vivo
[31] = Intrinsic clearance in human hepatocytes; format: ADME, cell-based, Hepatocyte; conditions: read-out: CLH
[32] = Plasma protein binding in human; format: ADME, cell-free; conditions: read-out: PPB (converted)
[33] = biological target: T1, Cytochrome P450 3A4 (Homo sapiens, UniProt P08684); test: Inhibition of CYP3A4 (unknown origin); format: ADME
T1 sequence (P08684 whole entry): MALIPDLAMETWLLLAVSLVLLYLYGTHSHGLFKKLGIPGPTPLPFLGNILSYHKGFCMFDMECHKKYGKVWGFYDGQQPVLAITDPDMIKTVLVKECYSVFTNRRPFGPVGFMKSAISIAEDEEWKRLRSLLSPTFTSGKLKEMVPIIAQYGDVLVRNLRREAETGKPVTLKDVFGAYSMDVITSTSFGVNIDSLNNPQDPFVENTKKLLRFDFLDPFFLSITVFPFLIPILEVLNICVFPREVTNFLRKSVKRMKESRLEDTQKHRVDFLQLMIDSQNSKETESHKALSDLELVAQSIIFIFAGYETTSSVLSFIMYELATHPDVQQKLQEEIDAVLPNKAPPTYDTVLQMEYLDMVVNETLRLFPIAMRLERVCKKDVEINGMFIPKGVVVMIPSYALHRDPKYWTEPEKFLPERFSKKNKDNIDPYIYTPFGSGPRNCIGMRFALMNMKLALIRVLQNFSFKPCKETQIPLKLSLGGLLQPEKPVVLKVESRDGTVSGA

[34] = biological target: Cytochrome P450 2C9 (Homo sapiens, UniProt P11712); test: Inhibition of CYP2C9 (unknown origin); format: ADME
Cytochrome P450 2C9, sequence (P11712 whole entry): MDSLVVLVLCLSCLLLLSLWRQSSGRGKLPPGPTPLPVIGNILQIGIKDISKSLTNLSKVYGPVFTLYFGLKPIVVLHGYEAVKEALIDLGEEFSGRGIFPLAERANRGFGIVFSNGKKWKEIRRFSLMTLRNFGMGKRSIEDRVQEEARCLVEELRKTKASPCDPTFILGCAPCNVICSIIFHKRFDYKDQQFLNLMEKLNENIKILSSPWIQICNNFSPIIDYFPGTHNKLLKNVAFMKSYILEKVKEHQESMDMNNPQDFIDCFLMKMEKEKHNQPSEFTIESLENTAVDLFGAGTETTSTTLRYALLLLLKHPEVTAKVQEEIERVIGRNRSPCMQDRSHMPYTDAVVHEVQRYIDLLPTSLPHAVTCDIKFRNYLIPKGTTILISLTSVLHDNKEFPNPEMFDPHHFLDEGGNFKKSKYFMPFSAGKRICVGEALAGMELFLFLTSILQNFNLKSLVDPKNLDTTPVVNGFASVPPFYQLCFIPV

[35] = biological target: Cytochrome P450 2D6 (Homo sapiens, UniProt P10635); test: Inhibition of CYP2D6 (unknown origin); format: ADME
Cytochrome P450 2D6, sequence (P10635 whole entry): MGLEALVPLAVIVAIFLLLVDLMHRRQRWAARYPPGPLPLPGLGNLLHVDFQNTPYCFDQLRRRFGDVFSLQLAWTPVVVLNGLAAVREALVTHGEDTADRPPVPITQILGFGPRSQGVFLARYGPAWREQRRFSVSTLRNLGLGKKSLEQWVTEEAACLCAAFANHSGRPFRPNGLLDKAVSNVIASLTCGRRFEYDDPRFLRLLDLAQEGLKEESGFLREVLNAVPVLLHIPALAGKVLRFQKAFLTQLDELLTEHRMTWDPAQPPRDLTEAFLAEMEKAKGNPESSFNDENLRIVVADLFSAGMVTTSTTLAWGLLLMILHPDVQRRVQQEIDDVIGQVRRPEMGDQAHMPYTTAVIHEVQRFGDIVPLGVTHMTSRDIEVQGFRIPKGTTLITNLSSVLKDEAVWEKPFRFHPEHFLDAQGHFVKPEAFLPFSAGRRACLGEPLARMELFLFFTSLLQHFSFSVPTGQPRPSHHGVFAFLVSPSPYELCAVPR

[36] = biological target: T2, Cytochrome P450 2C8 (Homo sapiens, UniProt P10632); test: Inhibition of CYP2C8 (unknown origin); format: ADME
T2 sequence (P10632 whole entry): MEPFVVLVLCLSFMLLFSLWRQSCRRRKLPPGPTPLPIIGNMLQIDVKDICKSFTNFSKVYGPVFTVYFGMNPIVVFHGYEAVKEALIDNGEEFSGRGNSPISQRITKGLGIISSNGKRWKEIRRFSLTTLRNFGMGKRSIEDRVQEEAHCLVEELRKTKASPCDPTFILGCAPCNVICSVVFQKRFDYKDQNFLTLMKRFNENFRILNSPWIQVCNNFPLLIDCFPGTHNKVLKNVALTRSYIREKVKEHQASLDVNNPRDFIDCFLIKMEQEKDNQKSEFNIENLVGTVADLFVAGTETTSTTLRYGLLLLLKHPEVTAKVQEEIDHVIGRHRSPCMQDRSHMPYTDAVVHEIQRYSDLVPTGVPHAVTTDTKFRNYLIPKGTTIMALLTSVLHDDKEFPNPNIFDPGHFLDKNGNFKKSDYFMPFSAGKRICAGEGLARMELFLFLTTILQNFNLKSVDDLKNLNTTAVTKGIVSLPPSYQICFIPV

[37] = biological target: T1, Cytochrome P450 3A4; test: Activation of CYP3A4 (unknown origin); format: ADME
[38] = test system: SJSA-1; test: Antitumor activity against human SJSA-1 cells xenografted in po dosed CD-1 nu/nu mouse assessed as tumor growth inhibition administered once daily for 7 consecutive days followed by 2 weeks off dosing schedule; format: functional, organism-based; conditions: time 3.0 weeks
[39] = Toxicity in CD-1 mouse xenografted with human SJSA-1 cells assessed as body weight loss at 50 to 100 mg/kg, po administered once daily for 7 consecutive days followed by 2 weeks off dosing schedule; format: organism-based; conditions: in vivo, 504 h, dose 50-100 mg/kg, time 3 weeks
[40] = test system: Mus musculus; test: In vivo activation of p53 pathway in human SJSA-1 cells xenografted in po dosed CD-1 nu/nu mouse assessed as induction of p21 mRNA expression measured after 6 hrs; format: functional, organism-based; conditions: dose 100.0 mg/kg
[41] = biological target: Voltage-gated inwardly rectifying potassium channel KCNH2 (Homo sapiens, UniProt Q12809); test: Inhibition of human ERG
Voltage-gated inwardly rectifying potassium channel KCNH2, sequence (Q12809 whole entry): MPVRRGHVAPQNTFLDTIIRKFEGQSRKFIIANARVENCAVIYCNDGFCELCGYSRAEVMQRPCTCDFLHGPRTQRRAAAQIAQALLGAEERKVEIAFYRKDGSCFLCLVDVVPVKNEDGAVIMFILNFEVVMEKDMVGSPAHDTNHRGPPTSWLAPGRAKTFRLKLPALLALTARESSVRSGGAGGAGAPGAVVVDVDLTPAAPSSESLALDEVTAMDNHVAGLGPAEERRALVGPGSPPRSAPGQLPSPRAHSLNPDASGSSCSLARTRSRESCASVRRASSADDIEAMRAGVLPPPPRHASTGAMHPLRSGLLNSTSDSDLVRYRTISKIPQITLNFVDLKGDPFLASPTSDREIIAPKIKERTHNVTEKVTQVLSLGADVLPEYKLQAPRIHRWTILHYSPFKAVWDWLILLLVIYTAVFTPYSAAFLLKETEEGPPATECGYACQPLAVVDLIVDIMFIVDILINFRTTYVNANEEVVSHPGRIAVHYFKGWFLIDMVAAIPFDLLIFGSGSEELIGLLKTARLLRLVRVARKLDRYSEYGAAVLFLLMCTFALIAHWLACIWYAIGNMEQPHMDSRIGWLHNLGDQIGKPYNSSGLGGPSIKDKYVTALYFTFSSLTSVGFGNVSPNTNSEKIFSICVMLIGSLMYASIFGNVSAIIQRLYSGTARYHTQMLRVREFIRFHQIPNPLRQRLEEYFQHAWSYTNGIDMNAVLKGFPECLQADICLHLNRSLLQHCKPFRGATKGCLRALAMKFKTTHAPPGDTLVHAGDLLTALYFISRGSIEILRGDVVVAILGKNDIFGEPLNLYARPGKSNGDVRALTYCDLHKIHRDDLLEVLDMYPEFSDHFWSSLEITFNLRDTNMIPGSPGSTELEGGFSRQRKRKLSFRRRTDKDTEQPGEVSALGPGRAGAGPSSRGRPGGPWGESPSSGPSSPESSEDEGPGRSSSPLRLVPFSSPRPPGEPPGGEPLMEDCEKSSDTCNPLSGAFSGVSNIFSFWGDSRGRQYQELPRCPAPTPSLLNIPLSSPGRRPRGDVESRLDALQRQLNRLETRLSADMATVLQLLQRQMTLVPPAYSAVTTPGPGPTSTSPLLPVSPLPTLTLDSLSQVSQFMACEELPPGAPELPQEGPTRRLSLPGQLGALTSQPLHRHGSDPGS

E3 ubiquitin-protein ligase Mdm2, sequence (Q00987 whole entry): as the sequence (Q00987 whole entry, the tested form may be a part) above

CCC[C@H]1N(C(=O)c2ncccc2C(F)(F)F)CCC[C@@]1(Oc1csc(C(F)(F)F)c1)C(=O)N1CCC(O)(c2ccccc2O[C@H](C)CCC2(C(=O)O)CCC2)CC1
pKd [1]: 8.42

C[C@@H](Nc1nc(-c2noc(=O)[nH]2)nc2nc(N3CCOC[C@H]3c3ccccc3)n(C[C@H]3CC[C@H](C)CC3)c12)C1CCC1
logD [2]: 3.27
pIC50 [3]: 7.19
Ratio IC50 [4]: 100
MRT [5]: 43.8 min
clearance [6]: 73 mL/min/kg
bioavailability [7]: 2%
pIC50 [8]: 6.35

C[C@H]1CC[C@H](Cn2c(N3CCO[C@@H]4CCC[C@H]43)nc3cc(-c4noc(=O)[nH]4)nc(-c4cncc(Cl)c4)c32)CC1
logD [2]: 2.46
CL free [9]: 122 mL/min/kg
MRT [10]: 5.9 h
bioavailability [11]: 86%
CL free [12]: 5214 mL/min/kg
MRT [5]: 36 min
bioavailability [13]: 24%
CLint scaled [14]: 251 mL/min/kg
CLint scaled [15]: 78 mL/min/kg
CLint scaled [16]: 70 mL/min/kg
fraction unbound [17]: 0.007
fraction unbound [18]: 0.009
fraction unbound [19]: 0.006
clearance [20]: 36 mL/min/kg
clearance [21]: 1.4 mL/min/kg
clearance [22]: 12.4 mL/min/kg
Vd [23]: 1.3 L/kg
Vd [24]: 0.39 L/kg
Vd [25]: 0.91 L/kg
half-life [26]: 180 min
half-life [27]: 252 min
half-life [28]: 96 min
bioavailability [29]: 24%
bioavailability [30]: 86%
CLint scaled [31]: 58 mL/min/kg
fraction unbound [32]: 0.008
pIC50 [33]: < 4.30
pIC50 [34]: 4.51
pIC50 [35]: < 4.30
pIC50 [36]: 6.10
pEC50 [37]: < 4.52
Activity [38]: Dose-Dependent Effect
Activity [39]: Non-Toxic
Activity [40]: Dose-Dependent Effect
pIC50 [41]: 4.92
pIC50 [8]: 6.91
